Measured values: PMC8159160 (Journal of medicinal chemistry, 2021)

Assay: in vivo
Settings: mouse, plasma; for clearance: iv, 15 mg/kg

clearance [mL/min/kg]	AUC (po, 50 mg/kg) [µM·h]	Structure (SMILES)
86.7	2.9	CCN1C(=O)[C@@H](NC(=O)c2cccc(C)c2)[C@@H](c2ccc(F)cc2)c2c(C)nn(-c3ccccc3)c21 (relative stereo) [Compound 2, N-(rel-(4S,5S)-7-ethyl-4-(4-fluorophenyl)-3-methyl-6-oxo-1-phenyl-4,5,6,7-tetrahydro-1H-pyrazolo[3,4-b]pyridin-5-yl)-3-methylbenzamide]
20	–	CCN1C(=O)[C@@H](NC(=O)c2cccc(C(F)(F)F)c2)[C@@H](c2ccc(F)cc2)c2c(CN)nn(-c3ccccc3)c21 (relative stereo) [Compound 40, N-(rel-(4S,5S)-3-(aminomethyl)-7-ethyl-4-(4-fluorophenyl)-6-oxo-1-phenyl-4,5,6,7-tetrahydro-1H-pyrazolo[3,4-b]pyridin-5-yl)-3-(trifluoromethyl)benzamide]
